{"source": "patent US8617563B2", "about": "“Antichlamydial agents” (Duke University, priority 2011, dated 2013)", "key": {"CPAF": {"target": "CPAF (Chlamydia trachomatis serovar D, UniProt O84866)", "sequence (O84866 276-601)": "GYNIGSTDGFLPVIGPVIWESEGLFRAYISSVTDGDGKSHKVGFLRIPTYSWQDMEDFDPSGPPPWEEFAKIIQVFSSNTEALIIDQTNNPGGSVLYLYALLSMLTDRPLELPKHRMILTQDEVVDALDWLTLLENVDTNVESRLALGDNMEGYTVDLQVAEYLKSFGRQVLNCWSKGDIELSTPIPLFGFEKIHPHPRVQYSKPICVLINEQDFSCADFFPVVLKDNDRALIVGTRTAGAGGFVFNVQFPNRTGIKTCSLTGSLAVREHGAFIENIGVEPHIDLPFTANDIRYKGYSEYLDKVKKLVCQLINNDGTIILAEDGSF", "sequence (O84866 1-234, added parts left off)": "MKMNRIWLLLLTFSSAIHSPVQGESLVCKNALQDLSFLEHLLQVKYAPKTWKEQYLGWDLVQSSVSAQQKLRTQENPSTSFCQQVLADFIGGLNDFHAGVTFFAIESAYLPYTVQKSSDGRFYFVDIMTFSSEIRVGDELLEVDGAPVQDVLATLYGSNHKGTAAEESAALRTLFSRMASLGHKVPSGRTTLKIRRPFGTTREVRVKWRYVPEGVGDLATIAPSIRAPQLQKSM", "assay": "HPLC-based CPAF inhibition assay with Abz-tagged model substrate (SEQ ID NO:9)", "type": "biochemical, C. trachomatis", "parameters": "6xHis; made in house; host or cells: E. coli BL21 (DE3), plasmid pET30b-CPAF", "description": "FIG. 1 depicts the results of HPLC-based CPAF inhibition assays using a model CPAF substrate (SEQ ID NO:9) to compare inhibition of CPAF protease activity by SEQ ID NO:7, SEQ ID NO:2, and lactacystin. HPLC-based assays were performed in a final volume of 100 μL containing assay buffer, CPAF (62.5 nM), substrate 1 (0.5 mM), and varying concentrations of inhibitor (0-240 μM).\nHPLC-based assays comprised an Abz-tagged model CPAF substrate (SEQ ID NO:9) and were performed in a final volume of 100 μL containing 150 mM NaCl, 50 mM Tris pH 7.50, purified CPAF (62.5 nM), fluorescent-tagged model CPAF substrate (0.5 mM), and varying concentrations of each candidate compound (0-240 μM). IC50 values were determined by pre-incubating CPAF with varying concentrations of candidate compound for 5 min at room temperature prior to initiation of the reaction via the addition of model CPAF substrate. Reactions were allowed to proceed for 90 seconds at 25° C., followed by removal of 80 μL aliquots and quenching by the addition of 1.2 M HCl (40 μL). Data were converted to percent activity relative to a control reaction without candidate compound and fit to the following equation using GraFit v6.0, where [I] is the concentration of candidate compound and s is a slope factor: […]"}, "[1]": {"test_system": "C. caviae infected HeLa cells", "assay": "Host cell death (condensed nuclei) in C. caviae infected cells", "type": "cell-based", "conditions": "peptide-treated HeLa cells; listed as EQ ID NO:7", "description": "FIG. 12 depicts (A) low-magnification view of C. trachomatis LGV-L2 infected HeLa monolayers (30 h) treated with SEQ ID NO:7 or SEQ ID NO:11 peptides. (B) The frequency of condensed nuclei in treated cells is dependent on peptide concentration and Chlamydia infection. (C-D) Toxicity of CPAF inhibitors to Chlamydia-infected cells is observed in non-myeloid cells including human embryonic kidney cells HEK293 (C) and mouse embryo fibroblasts (D). […] (F-G) Cell death induced by anti-CPAF peptides requires Caspase-1 activation. HeLa cells infected with C. muridarum were treated with Ac-YVAD-CMK at 2 hpi, SEQ ID NO:7 peptide or SEQ ID NO:11 control peptide at 12 hpi and the percentage of infected cells with condensed nuclei was assessed at 48 hpi (F). Mouse lung fibroblasts (MLF) derived from congenic WT, ICE1^−/− and ASC^−/− animals were infected with C. muridarum and treated with the indicated concentrations of anti peptides 12 hpi. The percentage of infected cells with condensed nuclei was assessed at 48 hpi (G). LGV-L2 inclusions were immunostained with anti-L2 antisera and C. muridarum and C. caviae inclusions were immunostained with an anti-chlamydial LPS monoclonal antibody. Cell death in infected and uninfected cells treated with CPAF inhibitory peptides or control peptides was determined by counting the number of condensed nuclei of ˜1000 cells."}, "C. trachomatis LGV-L2": {"test_system": "C. trachomatis LGV-L2", "assay": "Generation of infectious particles (IFU) and inclusion growth in infected HeLa cells", "type": "cell-based", "description": "(§1) FIG. 9 depicts (A) CPAF inhibitory peptides block the generation of Chlamydia infectious particles. L2-infected HeLa cells were treated at 12 hpi with increasing concentration of peptides. EBs were harvested at 30 hpi and inclusion-forming units (IFU) were quantified on fresh cell monolayers. (B-D) CPAF activity is required to maintain inclusion integrity. The integrity of the inclusion was determined by assessing the immunolocalization of the inclusion membrane marker IncA (red) and Chlamydia (green) (B) and by transmission electron microscopy (C). […] (D) The percentage of vimentin-positive inclusions was determined by IF in infected cells treated with SEQ ID NO:7 and SEQ ID NO:11 (12 hpi) peptides at 24 hpi. (E) Activation of inflammatory cytokines upon inhibition of CPAF activity. Levels of IL-8 supernatants from Chlamydia infected cells treated with peptides as in (B-D) were determined at 24 hpi by ELISA.\nCells were infected with an MOI of 1 and treated with CPAF inhibitor (SEQ ID NO:7) or control (SEQ ID NO:11) peptides at 12 hpi, fixed at 24 hpi and analyzed by IF with anti-L2 polyclonal antisera. Inclusion size was determined by measuring the inclusion diameter in μm by confocal microscopy of 50 infected cells. The number of cells with fragmented inclusions was determined by counting the number of infected cells out of 50 with more than one inclusion. […]"}, "IL-8 secretion": {"test_system": "IL-8 secretion", "assay": "IL-8 secretion by infected HeLa cells (ELISA)", "type": "cell-based, human", "conditions": "peptide 12.5 μM at 12 hpi, measured 24 hpi", "description": "as §1\nNext, the mechanism underlying the block in chlamydial replication was assessed by performing microscopy analyses of Chlamydia-infected cells treated with an inhibitor of CPAF (SEQ ID NO:7). […] IL-8 secretion into the media was determined with a Human IL-8 ELISA kit (available from BioLegend)."}, "C. caviae CPAF": {"test_system": "C. caviae CPAF", "assay": "GST-IncC cleavage by lysate of C. caviae (GPIC) infected cells", "type": "biochemical", "conditions": "infected whole cell lysate", "description": "Cells were infected with an MOI of 1 and treated with CPAF inhibitor (SEQ ID NO:7) or control (SEQ ID NO:11) peptides at 12 hpi, fixed at 24 hpi and analyzed by IF with anti-L2 polyclonal antisera. Inclusion size was determined by measuring the inclusion diameter in μm by confocal microscopy of 50 infected cells. The number of cells with fragmented inclusions was determined by counting the number of infected cells out of 50 with more than one inclusion. (C) Sequence alignment and % sequence identify of full length CPAF and predicted inhibitory peptide sequence between C. trachomatis serovar LGV-L2, Chlamydia muridarum, and Chlamydophila caviae was determined using Geneious software (available at the Geneious website). […] GPIC or C. muridarum infected whole cell protein lysate was preincubated with SEQ ID NO:7 peptide or SEQ ID NO:11 control peptide, mixed with GST-IncC at 37° C., resolved by SDS-PAGE and stained with Coomassie blue. […] Inhibition of C. muridarum (E) and C. ceviae (F) growth was determined by counting the number of recovered IFUs. […] Inclusions were detected by IF with anti-LGV-L2 (A, B, E) antisera or anti-chlamydial LPS (F) monoclonal antibodies, and host nuclei sere detected by staining."}}, "note": "Entries after “also recorded” stand apart in the source; their conditions may differ. Where no end group is shown, it is not given here.", "data": [{"substance": "SLFYSPMVPHFWAELRNHYATSGLKRRRRRRRRR-NH2 [SEQ ID NO:7]", "values": [{"measurement": "IC50", "setting": "CPAF; CPAF 62.5 nM, substrate SEQ ID NO:9 0.5 mM, inhibitor 0-240 μM", "result": "50 ± 7", "unit": "nM"}, {"measurement": "CPAF inhibition relative to SEQ ID NO:2", "setting": "CPAF; HPLC-based assay, greater than SEQ ID NO:2", "result": "about 30 fold"}, {"measurement": "CPAF inhibition relative to lactacystin", "setting": "CPAF; HPLC-based assay, greater than lactacystin", "result": "about 200 fold"}, {"measurement": "Condensed nuclei / cell death in C. caviae infected cells", "setting": "[1]", "result": "do not cause cell death"}, {"measurement": "Yields of EBs (IFU)", "setting": "C. trachomatis LGV-L2; L2-infected HeLa, peptide at 12 hpi, EBs harvested 30 hpi", "result": "significantly lowered yields of EBs"}, {"measurement": "Inclusion growth", "setting": "C. trachomatis LGV-L2; MOI 1, peptide at 12 hpi, fixed 24 hpi", "result": "stunted inclusion growth"}, {"measurement": "IL-8 secretion", "setting": "IL-8 secretion", "result": "increased IL-8 secretion"}, {"measurement": "Inhibition of C. caviae CPAF", "setting": "C. caviae CPAF", "result": "not sensitive to inhibition; also recorded: but not C. ceviae CPAF"}]}]}
